# Data reported in paper PMC9014410, “Discovery of V-0219: A Small-Molecule Positive Allosteric Modulator of the Glucagon-Like Peptide-1 Receptor toward Oral Treatment for “Diabesity”” (Journal of Medicinal Chemistry, 2022).
# Where “and” joins values, the source holds several entries; their conditions need not be identical. Equal entries are not always repeated. Entries after “also recorded” stand apart in the source; their conditions may differ.
# What was measured:
# [1] = system: Wistar rats; assay: Glucose tolerance test in Wistar rats; type: in vivo, rat; conditions: (S)-9 0.04 and 0.2 mg/kg ip; ip 2 g/kg glucose
# Protocol: (§1) Glucose tolerance test was carried out both in Wistar and Zucker (fa/fa) obese male rats and in wild-type and GLP-1R KO mice, by injecting an ip glucose load of 2 g/kg body weight (diluted in saline) or by oral administration of a glucose solution (2 g/kg in a volume of water of […] body weight). Animals were food-deprived overnight (12 h fasting) before testing. Thirty minutes before glucose load, animals received by ip administration the compound being tested dissolved in saline/DMSO (0.2%) as vehicle. Tail blood samples were collected before (0 min) and 5, 10, 15, 30, 45, 60, and 120 min after glucose administration. Glucose was determined using a commercial glucometer (Accu-check, Roche Diagnostic).
# [2] = system: Zucker (fa/fa) obese male rats; assay: Glucose tolerance test in diabetic fatty Zucker rats; type: in vivo, rat; conditions: (S)-9 0.4 mg/kg intragastrically; ip 2 g/kg glucose
# [3] = system: EndoC-βH1 cells; assay: Insulin secretion by human pancreatic EndoC-βH1 cells; type: cell-based; conditions: high glucose concentration
# Protocol: Both cell lines were cultured in RPMI 1640 medium supplemented with 10% fetal calf serum as described. Cell monolayers were incubated at 37 °C in a 7.5% CO2 atmosphere. For insulin secretion studies, cells were detached, washed once with glucose-free medium and placed in 48 multiwell plates (100,000 cells per well) and kept in glucose-free medium for 1.5 h prior to incubation with drugs. The incubation was done using two types of culture media, defined as low glucose (0.5–3 mM) and high glucose (15 mM). […] Incubation with compounds lasted 30 min, and then the media was collected, centrifuged at 4 °C for 2 min until assayed for insulin using commercial ELISA kit.
# [4] = system: wild-type C57BL/6N mice; assay: Glucose tolerance test in wild-type mice; type: in vivo, mouse
# Protocol: as §1
# [5] = system: male Wistar rats; assay: Feeding inhibition in 12-h fasted male Wistar rats (icv)
# [6] = system: INS-1 β-cells; assay: Insulin secretion by rat INS-1 / INS-1E insulinoma cells; type: cell-based; conditions: INS-1E cells, 0.5 mM glucose, single representative experiment
# Protocol: The incubation was done using two types of culture media, defined as low glucose (0.5–3 mM) and high glucose (15 mM). […] Incubation with compounds lasted 30 min, and then the media was collected, centrifuged at 4 °C for 2 min until assayed for insulin using commercial ELISA kit.
# [7] = system: GLP-1R KO mice; assay: Glucose tolerance test in GLP-1R KO mice; type: in vivo, mouse; conditions: (S)-9; 2 g/kg glucose
# Protocol: as §1
# [8] = biological target: T1, A3 (h) (Homo sapiens, UniProt P0DMS8); assay: biochemical; parameters: radioligand displacement binding panel (Eurofins Cerep), % inhibition of control specific binding; conditions: agonist radioligand; read-out: % Inhibition of Control Specific Binding
# T1 construct: gene ADORA3
# Source text: (§2) 3. Binding to off-target receptors
# (§3) Eurofins Cerep (France). Significant binding affinity was defined as a displacement of target
# (§4) selective radioligand greater than 50% using a concentration of 10 µM of 9.
# [9] = biological target: T2, NK3 (h) (Homo sapiens, UniProt P29371); assay: biochemical; parameters: radioligand displacement binding panel (Eurofins Cerep), % inhibition of control specific binding; conditions: antagonist radioligand; read-out: % Inhibition of Control Specific Binding
# T2 construct: gene TACR3
# T2 sequence (P29371 whole entry): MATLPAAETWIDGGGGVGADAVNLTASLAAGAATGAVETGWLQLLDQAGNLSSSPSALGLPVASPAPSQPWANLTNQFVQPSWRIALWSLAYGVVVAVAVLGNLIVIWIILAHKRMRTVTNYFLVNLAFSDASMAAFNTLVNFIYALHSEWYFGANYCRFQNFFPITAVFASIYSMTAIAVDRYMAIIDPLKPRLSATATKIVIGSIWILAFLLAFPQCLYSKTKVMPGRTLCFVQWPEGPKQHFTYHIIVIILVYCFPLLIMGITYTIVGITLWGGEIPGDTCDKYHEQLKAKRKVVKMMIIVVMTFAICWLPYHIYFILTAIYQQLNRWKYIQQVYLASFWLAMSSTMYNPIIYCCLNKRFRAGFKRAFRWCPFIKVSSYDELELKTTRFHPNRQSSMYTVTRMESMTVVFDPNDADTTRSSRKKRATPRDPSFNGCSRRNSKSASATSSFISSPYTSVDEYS
# Source text: as §2, §3, §4
# [10] = biological target: T3, A1 (h) (Homo sapiens, UniProt P30542); assay: biochemical; parameters: radioligand displacement binding panel (Eurofins Cerep), % inhibition of control specific binding; conditions: antagonist radioligand; read-out: % Inhibition of Control Specific Binding
# T3 construct: gene ADORA1
# T3 sequence (P30542 whole entry): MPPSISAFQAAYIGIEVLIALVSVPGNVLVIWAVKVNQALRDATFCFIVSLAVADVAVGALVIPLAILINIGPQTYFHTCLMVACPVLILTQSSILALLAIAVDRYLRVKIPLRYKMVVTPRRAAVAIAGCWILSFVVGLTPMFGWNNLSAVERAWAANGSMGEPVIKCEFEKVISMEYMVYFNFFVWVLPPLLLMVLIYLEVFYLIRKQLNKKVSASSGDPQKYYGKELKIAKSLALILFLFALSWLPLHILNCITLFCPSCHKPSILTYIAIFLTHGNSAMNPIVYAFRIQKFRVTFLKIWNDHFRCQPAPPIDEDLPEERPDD
# Source text: as §2, §3, §4
# [11] = biological target: T4, H1 (h) (Homo sapiens, UniProt P35367); assay: biochemical; parameters: radioligand displacement binding panel (Eurofins Cerep), % inhibition of control specific binding; conditions: antagonist radioligand; read-out: % Inhibition of Control Specific Binding
# T4 construct: gene HRH1
# T4 sequence (P35367 whole entry): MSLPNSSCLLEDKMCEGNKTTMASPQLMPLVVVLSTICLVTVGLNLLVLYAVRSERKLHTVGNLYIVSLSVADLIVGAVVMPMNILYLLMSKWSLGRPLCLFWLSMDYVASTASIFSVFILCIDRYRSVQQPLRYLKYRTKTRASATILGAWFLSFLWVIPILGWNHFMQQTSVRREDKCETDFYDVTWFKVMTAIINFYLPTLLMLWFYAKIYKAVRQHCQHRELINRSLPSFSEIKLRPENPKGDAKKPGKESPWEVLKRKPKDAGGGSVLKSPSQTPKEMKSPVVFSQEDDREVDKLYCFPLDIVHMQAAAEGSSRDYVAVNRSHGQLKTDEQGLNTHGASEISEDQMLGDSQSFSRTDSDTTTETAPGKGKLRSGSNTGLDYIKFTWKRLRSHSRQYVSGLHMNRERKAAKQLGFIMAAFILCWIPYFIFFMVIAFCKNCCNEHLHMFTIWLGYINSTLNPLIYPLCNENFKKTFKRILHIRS
# Source text: as §2, §3, §4
# [12] = biological target: T5, MT1 (ML1A) (h) (Homo sapiens, UniProt P48039); assay: biochemical; parameters: radioligand displacement binding panel (Eurofins Cerep), % inhibition of control specific binding; conditions: agonist radioligand; read-out: % Inhibition of Control Specific Binding
# T5 construct: gene MTNR1A
# Source text: as §2, §3, §4
# [13] = biological target: T6, β1 (h) (Homo sapiens, UniProt P08588); assay: biochemical; parameters: radioligand displacement binding panel (Eurofins Cerep), % inhibition of control specific binding; conditions: agonist radioligand; read-out: % Inhibition of Control Specific Binding
# T6 construct: gene ADRB1
# Source text: as §2, §3, §4
# [14] = biological target: T7, NK2 (h) (Homo sapiens, UniProt P21452); assay: biochemical; parameters: radioligand displacement binding panel (Eurofins Cerep), % inhibition of control specific binding; conditions: agonist radioligand; read-out: % Inhibition of Control Specific Binding
# T7 construct: gene TACR2
# T7 sequence (P21452 whole entry): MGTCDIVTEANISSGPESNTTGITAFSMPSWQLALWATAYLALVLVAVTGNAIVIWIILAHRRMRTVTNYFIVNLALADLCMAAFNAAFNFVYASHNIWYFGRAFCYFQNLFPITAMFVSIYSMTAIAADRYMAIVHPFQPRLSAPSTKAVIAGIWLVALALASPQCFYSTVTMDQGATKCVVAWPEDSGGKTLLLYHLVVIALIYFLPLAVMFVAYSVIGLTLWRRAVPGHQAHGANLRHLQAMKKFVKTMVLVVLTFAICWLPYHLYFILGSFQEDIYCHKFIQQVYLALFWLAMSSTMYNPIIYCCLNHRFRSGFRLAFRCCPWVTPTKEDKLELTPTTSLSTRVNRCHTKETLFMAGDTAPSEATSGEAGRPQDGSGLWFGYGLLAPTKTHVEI
# Source text: as §2, §3, §4
# [15] = biological target: T8, H2 (h) (Homo sapiens, UniProt P25021); assay: biochemical; parameters: radioligand displacement binding panel (Eurofins Cerep), % inhibition of control specific binding; conditions: antagonist radioligand; read-out: % Inhibition of Control Specific Binding
# T8 construct: gene HRH2
# T8 sequence (P25021 whole entry): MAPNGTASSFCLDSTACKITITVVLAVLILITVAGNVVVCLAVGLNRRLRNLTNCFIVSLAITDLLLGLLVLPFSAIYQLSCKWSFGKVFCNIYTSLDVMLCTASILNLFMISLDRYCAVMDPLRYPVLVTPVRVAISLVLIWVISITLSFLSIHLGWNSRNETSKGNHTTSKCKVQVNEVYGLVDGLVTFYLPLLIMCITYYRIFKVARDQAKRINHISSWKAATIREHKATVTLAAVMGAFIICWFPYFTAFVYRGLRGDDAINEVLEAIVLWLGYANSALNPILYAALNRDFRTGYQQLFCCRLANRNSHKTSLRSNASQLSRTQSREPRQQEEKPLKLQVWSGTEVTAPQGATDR
# Source text: as §2, §3, §4
# [16] = biological target: T9, B2 (h) (Homo sapiens, UniProt P30411); assay: biochemical; parameters: radioligand displacement binding panel (Eurofins Cerep), % inhibition of control specific binding; conditions: agonist radioligand; read-out: % Inhibition of Control Specific Binding
# T9 construct: gene BDKRB2
# T9 sequence (P30411 whole entry): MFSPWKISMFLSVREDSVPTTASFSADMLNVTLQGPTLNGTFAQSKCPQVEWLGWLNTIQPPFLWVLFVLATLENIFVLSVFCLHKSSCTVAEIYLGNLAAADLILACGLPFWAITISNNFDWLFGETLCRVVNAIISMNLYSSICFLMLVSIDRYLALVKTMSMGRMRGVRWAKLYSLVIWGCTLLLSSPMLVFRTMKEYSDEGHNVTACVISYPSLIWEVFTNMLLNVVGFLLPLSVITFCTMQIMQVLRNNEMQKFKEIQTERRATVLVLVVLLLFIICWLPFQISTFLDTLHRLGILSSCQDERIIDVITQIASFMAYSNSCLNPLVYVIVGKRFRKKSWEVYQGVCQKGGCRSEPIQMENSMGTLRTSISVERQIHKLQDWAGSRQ
# Source text: as §2, §3, §4
# [17] = biological target: CCR1 (h) (Homo sapiens, UniProt P32246); assay: biochemical; parameters: radioligand displacement binding panel (Eurofins Cerep), % inhibition of control specific binding; conditions: agonist radioligand; read-out: % Inhibition of Control Specific Binding
# Source text: as §2, §3, §4
# [18] = biological target: T10, GAL2 (h) (Homo sapiens, UniProt O43603); assay: biochemical; parameters: radioligand displacement binding panel (Eurofins Cerep), % inhibition of control specific binding; conditions: agonist radioligand; read-out: % Inhibition of Control Specific Binding
# T10 construct: gene GALR2
# T10 sequence (O43603 whole entry): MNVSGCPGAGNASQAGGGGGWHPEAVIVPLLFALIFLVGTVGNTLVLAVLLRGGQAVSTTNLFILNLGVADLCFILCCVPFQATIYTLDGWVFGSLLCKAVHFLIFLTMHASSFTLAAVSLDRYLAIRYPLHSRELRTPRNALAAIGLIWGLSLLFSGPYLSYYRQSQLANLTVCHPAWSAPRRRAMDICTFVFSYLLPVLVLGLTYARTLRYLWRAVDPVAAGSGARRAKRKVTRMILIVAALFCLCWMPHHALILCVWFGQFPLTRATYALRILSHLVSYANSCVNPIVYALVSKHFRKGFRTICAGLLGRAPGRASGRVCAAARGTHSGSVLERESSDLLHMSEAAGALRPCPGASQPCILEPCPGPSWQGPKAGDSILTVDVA
# Source text: as §2, §3, §4
# [19] = biological target: T11, A2A (h) (Homo sapiens, UniProt P29274); assay: biochemical; parameters: radioligand displacement binding panel (Eurofins Cerep), % inhibition of control specific binding; conditions: agonist radioligand; read-out: % Inhibition of Control Specific Binding
# T11 construct: gene ADORA2A
# T11 sequence (P29274 whole entry): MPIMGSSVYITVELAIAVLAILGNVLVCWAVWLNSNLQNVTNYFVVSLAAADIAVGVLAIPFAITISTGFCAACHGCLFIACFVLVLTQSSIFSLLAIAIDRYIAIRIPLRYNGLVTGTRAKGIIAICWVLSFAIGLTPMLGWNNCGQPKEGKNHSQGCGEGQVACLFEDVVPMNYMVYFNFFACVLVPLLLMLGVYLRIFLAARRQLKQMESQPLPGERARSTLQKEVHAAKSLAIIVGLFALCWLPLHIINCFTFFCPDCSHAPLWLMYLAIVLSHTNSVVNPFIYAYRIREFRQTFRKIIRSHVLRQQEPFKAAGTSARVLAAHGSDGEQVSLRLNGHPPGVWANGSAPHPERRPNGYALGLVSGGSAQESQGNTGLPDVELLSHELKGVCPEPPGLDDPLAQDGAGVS
# Source text: as §2, §3, §4
# [20] = Microsomal stability test as summarised in the text (species not given in the sentence); type: in vitro ADME; conditions: rat, dog, human, liver microsomes; text summary of Table S6; read-out: half-life time in a microsomal stability test
# [21] = system: panel of 54 GPCRs; assay: Selectivity panel of binding assays (Eurofins Cerep); conditions: 10 μM; all 54 receptors
# Source text: as §2, §3
# selective radioligand greater than 50% using a concentration of 10 µM of 9. […]
# [22] = system: male Wistar rats; assay: Anxiety-like behavior in the elevated plus-maze; type: in vivo, rat; conditions: 9 1 and 0.5 mg/kg ip
# Protocol: Animals naïve to the maze were manipulated for 7 days before testing. The day of the experiment, 30 min after ip injection of 9, animals were placed in the center of the maze, facing an open arm. The number of entries and the % of time spent in the exposed arms of the maze were measured. Test length was 5 min and animals were not retested.
# [23] = biological target: hERG channel (Homo sapiens, UniProt Q12809); assay: hERG channel inhibition, whole cell patch clamp in hERG-transfected CHO cells
# Sequence of hERG channel (Q12809 whole entry): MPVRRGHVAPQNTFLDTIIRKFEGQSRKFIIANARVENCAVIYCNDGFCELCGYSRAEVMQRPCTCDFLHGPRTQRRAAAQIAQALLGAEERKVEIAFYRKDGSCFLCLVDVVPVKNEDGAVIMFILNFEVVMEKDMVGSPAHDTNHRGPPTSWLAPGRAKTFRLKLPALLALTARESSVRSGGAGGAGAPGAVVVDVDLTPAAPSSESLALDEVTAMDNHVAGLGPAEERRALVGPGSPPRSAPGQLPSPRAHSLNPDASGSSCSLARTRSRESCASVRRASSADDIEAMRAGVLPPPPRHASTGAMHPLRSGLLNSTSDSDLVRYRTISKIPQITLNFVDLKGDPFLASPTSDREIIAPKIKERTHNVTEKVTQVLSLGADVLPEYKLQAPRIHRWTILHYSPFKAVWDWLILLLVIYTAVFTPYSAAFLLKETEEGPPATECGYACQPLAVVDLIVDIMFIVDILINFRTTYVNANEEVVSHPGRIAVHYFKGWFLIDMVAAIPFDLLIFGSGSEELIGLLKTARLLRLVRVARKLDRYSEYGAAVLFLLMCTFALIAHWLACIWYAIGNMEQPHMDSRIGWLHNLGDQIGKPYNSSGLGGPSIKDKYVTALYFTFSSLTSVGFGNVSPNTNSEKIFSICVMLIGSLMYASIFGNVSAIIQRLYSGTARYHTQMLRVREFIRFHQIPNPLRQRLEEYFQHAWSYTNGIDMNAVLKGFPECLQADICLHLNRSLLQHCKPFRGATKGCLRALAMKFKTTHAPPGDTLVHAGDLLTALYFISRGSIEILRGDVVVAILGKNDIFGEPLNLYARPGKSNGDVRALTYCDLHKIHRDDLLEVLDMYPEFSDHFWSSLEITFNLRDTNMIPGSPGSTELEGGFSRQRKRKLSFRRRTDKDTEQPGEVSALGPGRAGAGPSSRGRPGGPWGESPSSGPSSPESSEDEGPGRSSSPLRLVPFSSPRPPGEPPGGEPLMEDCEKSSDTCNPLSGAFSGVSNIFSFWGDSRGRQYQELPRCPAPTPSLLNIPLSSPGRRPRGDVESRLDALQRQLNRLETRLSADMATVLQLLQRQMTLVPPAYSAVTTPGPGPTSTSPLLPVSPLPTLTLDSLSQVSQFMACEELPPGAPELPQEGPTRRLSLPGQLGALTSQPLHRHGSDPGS
# Protocol: (tail) current was investigated using Chinese Hamster Ovary (CHO) cells stably transfected with
# hERG, employing the whole cell patch clamp technique.
# hERG inhibition. Patch clamp experiments were carried out using FlyscreenP® robot. CHO cells
# choline chloride, 5 mM KCl, 1 mM MgCl2(H2O)6, 10 mM HEPES, 10 mM glucose, pH 7.4) to give
# cell density of ~ 0.5 million per mL, and transferred to the cell mixer on Flyscreen® 8500 robot
# which keeps cell suspension in a ready-for-use condition.
# KMeSO3, 5 mM MgCl2(H2O)6, 10 mM HEPES-KOH, 5 mM EGTA, 5 mM K2ATP at pH 7.2. Ionic
# currents from hERG transfected cells were measured in the whole cell configuration. Once the whole
# the hERG current. An EC NaCl solution (120 mM NaCl, 5 mM KCl, 1.8 mM CaCl2, 10 mM
# HEPES, 10 mM glucose, pH 7.4) was added for control readings, which were measured for ~ 360 s
# followed by compound addition.
# continuously for ~ 600 seconds. For analysis purposes, the current of interest (IKr) was considered.
# Results were expressed as absolute values and percent change from control. Percent inhibition was
# calculated by comparing the IKr current before and after addition of test compound once a steady-
# state current had been attained.
# [24] = In vivo pharmacokinetic study in male Sprague Dawley rats; conditions: rat, plasma
# [25] = biological target: CYP2C9 (Homo sapiens, UniProt P11712); assay: P450 cytochrome inhibition, CYP2C9; type: in vitro ADME
# Sequence of CYP2C9 (P11712 whole entry, canonical isoform): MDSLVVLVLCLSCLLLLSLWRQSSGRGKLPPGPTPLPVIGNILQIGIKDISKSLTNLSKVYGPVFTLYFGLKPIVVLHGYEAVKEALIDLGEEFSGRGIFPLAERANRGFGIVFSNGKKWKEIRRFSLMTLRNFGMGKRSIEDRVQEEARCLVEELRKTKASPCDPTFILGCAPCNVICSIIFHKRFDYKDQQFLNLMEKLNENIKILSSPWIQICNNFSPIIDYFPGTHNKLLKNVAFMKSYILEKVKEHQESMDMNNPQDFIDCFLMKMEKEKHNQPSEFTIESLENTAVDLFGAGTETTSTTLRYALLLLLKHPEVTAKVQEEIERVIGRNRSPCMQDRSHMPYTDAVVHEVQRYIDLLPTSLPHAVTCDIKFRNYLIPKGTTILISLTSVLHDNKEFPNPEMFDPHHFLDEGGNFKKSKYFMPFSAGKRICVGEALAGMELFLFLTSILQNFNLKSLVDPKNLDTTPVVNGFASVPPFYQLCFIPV
# Protocol: Inhibition of P450 cytochrome isoforms. […] Effect on hERG channel. […] Patch clamp experiments were carried out using […]® robot. […] After S27
# [26] = biological target: hGLP-1R (Homo sapiens, UniProt P43220); assay: Calcium mobilization / calcium fluxes in HEK cells stably expressing hGLP-1R (ExviTech flow cytometry); conditions: 10 μM compound, then EC25 of GLP-1
smiles,measurement,setting,value
"FC(F)(F)c1ccc(-c2noc(CN3CCC[C@@H](CN4CCOCC4)C3)n2)cc1 [(S)-9, (+)-4-{[(3S)-1-({3-[4-(Trifluoromethyl)phenyl]-1,2,4-oxadiazol-5-yl}methyl)piperidin-3-yl]methyl}morpholine]",glucose handling after glucose load,[1],clearly improved glucose handling
same,"glucose handling after glucose load, oral dosing",[2],orally active
same,potentiation of insulin secretion stimulated by GLP-1 (in words),[3],similarly potentiate insulin secretion stimulated by GLP-1
same,glucose handling after glucose load,"[4]; (S)-9, 2 g/kg glucose, 12-h fasted",improvement
same,duration of the feeding effect after injection,[5]; (S)-9 5 μg/kg icv,up to 2 h
same,effect on feeding,[5]; (S)-9 5 μg/kg icv,decreased feeding
same,Insulin secreted,[6]; 0.1 nM test substance,29 ng/mL
same,Insulin secreted,[6]; 1 nM test substance,39 ng/mL
same,Insulin secreted,[6]; 10 nM test substance,37 ng/mL
same,glucose handling after glucose load,[7],devoid; also recorded: inactive
"FC(F)(F)c1ccc(-c2noc(CN3CCCC(CN4CCOCC4)C3)n2)cc1 (stereo not shown) [compound 9, 4-{[1-({3-[4-(Trifluoromethyl)phenyl]-1,2,4-oxadiazol-5-yl}methyl)piperidin-3-yl]methyl}morpholine]",inhibition at 10 µM,[8],-20%
same,inhibition at 10 µM,[9],-8%
same,inhibition at 10 µM,[10],5%
same,inhibition at 10 µM,[11],-4%
same,inhibition at 10 µM,[12],-3%
same,inhibition at 10 µM,[13],3%
same,inhibition at 10 µM,[14],19%
same,inhibition at 10 µM,[15],-13%
same,inhibition at 10 µM,[16],8%
same,inhibition at 10 µM,[17],4%
same,inhibition at 10 µM,[18],0%
same,inhibition at 10 µM,[19],-3%
same,half-life at 1 µM,[20],> 30 min
same,displacement of the specific binding,[21],lower than 50%
same,glucose handling after ip glucose load,"[4]; 9 0.1 mg/kg ip, ip 2 g/kg glucose, 0.1 mg/kg",improved glucose handling
same,glucose handling after oral glucose load,"[4]; 9 0.1 or 1 mg/kg ip, oral 2 g/kg glucose",improved glucose handling
same,anxiety-like behavior in the elevated plus-maze,[22],does not induce anxiety-like behavior; also recorded: did not result in the emergence of anxiety-like behaviors nor hypolocomotion
same,IC50,[23],4.13 µM
same,hERG inhibition (in words),[23],weak inhibitor of the hERG channel at micromolar concentrations
same,"Inhibition (%), Mean",[23]; 1 µM,29.7%
same,"Inhibition (%), single values",[23]; 1 µM,27.0% and 32.3%
same,"Inhibition (%), Mean",[23]; 10 µM,62.3%
same,"Inhibition (%), single values",[23]; 10 µM,52.1% and 72.5%
same,"Inhibition (%), Mean",[23]; 30 µM,80.5%
same,"Inhibition (%), single values",[23]; 30 µM,78.0% and 83.0%
same,AUC(0-inf) at 24 h,"[24]; IV 2 mg/kg, mean ± SD, N = 4",311 ± 12.9 ng·h/mL
same,AUC(0-t) at 24 h,"[24]; IV 2 mg/kg, mean ± SD, N = 4",278 ± 20 ng·h/mL
same,C0,"[24]; IV 2 mg/kg, mean ± SD, N = 4",492 ± 81.9 ng/mL
same,clearance at 24 h,"[24]; IV 2 mg/kg, mean ± SD, N = 4",107 ± 4.58 mL/min/kg
same,half-life at 24 h,"[24]; IV 2 mg/kg, mean ± SD, N = 4",195 ± 61.8 min
same,Vd at 24 h,"[24]; IV 2 mg/kg, mean ± SD, N = 4, read-out: Vss",18.1 ± 6.62 L/kg
same,bioavailability,[24]; PO 10 mg/kg vs IV 2 mg/kg,39%
same,bioavailability at 24 h,[24]; PO 10 mg/kg vs IV 2 mg/kg,38.9 ± 9.52%
same,AUC(0-inf) at 24 h,"[24]; PO 10 mg/kg, mean ± SD, N = 4",644 ± 267 ng·h/mL
same,AUC(0-t) at 24 h,"[24]; PO 10 mg/kg, mean ± SD, N = 4",540 ± 132 ng·h/mL
same,Cmax at 24 h,"[24]; PO 10 mg/kg, mean ± SD, N = 4",185 ± 14.5 ng/mL
same,Tmax at 24 h,"[24]; PO 10 mg/kg, mean ± SD, N = 4",49.8 ± 17.4 min
same,half-life at 24 h,"[24]; PO 10 mg/kg, mean ± SD, N = 4",172 ± 113 min
same,Tmax,"[24]; oral route, 10 mg/kg, read-out: time of maximal concentration post-ingestion (converted)",50 min
same,potentiation of feeding inhibition induced by exendin-4 (in words),[5]; 9 1 μg/kg icv,potentiates; also recorded: potentiate the feeding inhibition; also recorded: enhancing satiety induced by the GLP-1R agonist exendin-4
same,IC50,[25],80 µM
O=S(=O)(NC1CCN(Cc2nc(-c3ccc(C(F)(F)F)cc3)no2)CC1)c1ccccc1Cl [compound 1],result of ExviTech library screening,[26],putative modulator of the GLP-1R
